Measured values reported in PubChem BioAssay AID1918956 (Molecular Pharmacology Branch, DTP, NCI, 2023).
Values joined by “and” are separate entries in the source; they are usually repeats but may differ in a detail not shown here. Identical values can stand only once.

Tested on: OVCAR-5 complex spheroids, viability
Assay: Anticancer human tumor OVCAR-5 cell line growth inhibition;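 further: spheroids exposed to agents for seven days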;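 on viability, T/C: 100% = DMSO vehicle control wells viability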
Conditions: for viability, T/C: stronger effect = lower value
From the text: Multicellular complex tumor spheroid response to LSD1 Inhibitor Iadademstat in combination with a variety of drugs and investigational agents in selected tumor cell lines
The current study was undertaken to assess response to LSD1 inhibitors in combination with standard-of-care drugs and investigational agents in solid tumor complex spheroid models as well as in the K-562 leukemia. Complex spheroids include a stromal component modeled by human endothelial cells (HUVEC) and fibroblasts modeled by human mesenchymal stem cells (MSCs). The concentration ranges selected for each drug and investigational agent were based upon clinically achievable concentrations if the clinical Cmax of the agent was known.
Compounds. The drugs and investigational agents used in this study are listed on Table 1. All of the agents used, including staurosporine (NSC755774) and gemcitabine (NSC613327), were obtained from the Developmental Therapeutics Program, NCI. FDA-approved anticancer drugs are available from the NCI at http://dtp.nci.nih.gov/branches/dscb/oncology_drugset_explanation.html. Drugs and investigational agents were >95% pure by proton nuclear magnetic resonance (NMR) and liquid chromatography/mass spectrometry (LC/MS). Stock solutions were prepared at 400x in DMSO, stored at -70 degrees C, and diluted in fresh medium prior to their use. The final concentration of DMSO in cell culture wells never exceeded 0.25% (v/v). The FDA-approved anticancer drug set is available from the Developmental Therapeutics Program at https://dtp.cancer.gov/organization/dscb/obtaining/available_plates.htm. All drugs and investigational agents were tested over a range starting from a high concentration at or near the clinical Cmax and decreasing in half-log increments. If the clinical Cmax for an agent had not been determined, the highest concentration tested was 10 microM.
Cell Lines. The patient-derived cancer cell (PDC) lines: 292921-168-R-J2-PDC, K24384-001-R-PDC, and 521955-158-R2-J5-PDC pancreatic carcinomas, 556581-035-R-J1 ovarian carcinoma, 324938-238-R-J1-PDC, 855422-203-R-J1-PDC and 883617-216-R-J1-PDC urothelial bladder carcinomas, 743489-274-T-PDC renal cell carcinoma, 138582-R-J1 Merkel cell tumor, K60290-347-R-J1 and K57222-313-R-J1-PDC glioblastomas, 653999-131-R-J2-PDC, LG0703-F948-PDC, and 349418-098-R-PDC non-small cell lung carcinomas, 885512-296-R-J2-PDC, 171881-019-R-J1-PDC breast carcinomas and 186277-243-T-J2-PDC and 233499-124-R-J2-PDC colon carcinomas were obtained from the NCI Patient-Derived Models Repository (PDMR, https://pdmr.cancer.gov). The established cell lines NCI/ADR-RES (RRID:CVCL_14520 and OVCAR-5 (RRID:CVCL_1628) ovarian carcinomas, 786-O (RRID:CVCL_1051) and A498 […] renal cell carcinoma, NCI-H211 (ATCC, cat. CRL-5824; RRID:CVCL_1529), NCI-H196 (ATCC, cat. CRL-5823, RRID:CVCL_1509), SW 1271 (ATCC, cat. CRL-2177, RRID:CVCL_1716) and NCI-H1876 (ATCC, cat. CRL-5902, RRID:CVCL_1503) small cell lung carcinomas, MDA-MB-231 (RRID:CVCL_0062) and MDA-MB-468 (RRID:CVCL_0419)breast carcinomas (10-12). Pooled donor human umbilical vein endothelial cells (HUVEC, Lonza, cat. CC-2519) and human mesenchymal stem cells (hMSC, Lonza, cat. PT-2501) were purchased from Lonza (Walkersville, MD).
Cell Culture. All cells were maintained in an incubator at 37 degrees C and 5% CO2 with 95% humidity. The PDC lines were cultured according to standard operating procedures established by the NCI PDMR (https://pdmr.cancer.gov). Briefly all PDCs were thawed and cultured in Matrigel-coated flasks prepared with a working solution of 1X Ham's F-12 nutrient mix, without supplementation (Invitrogen, Waltham, MA, cat. 11765054), 100 U/mL penicillin-streptomycin (Invitrogen, cat. 15140122), and 2.5% Matrigel (Corning Inc., Corning, NY, cat. 354248) for the first three passages. […]

[1] = curve of first compound, second compound 0.1 µM
[2] = curve of first compound, second compound 0.316 µM
[3] = curve of first compound, second compound 1 µM
[4] = curve of first compound, second compound 3.16 µM
[5] = curve of first compound, second compound 10 µM
[6] = second compound 0.1 µM, first compound 0.00316 µM
[7] = second compound 0.1 µM, first compound 0.01 µM
[8] = second compound 0.1 µM, first compound 0.0316 µM
[9] = second compound 0.1 µM, first compound 0.1 µM
[10] = second compound 0.1 µM, first compound 0.316 µM
[11] = second compound 0.1 µM, first compound 1 µM
[12] = second compound 0.316 µM, first compound 0.00316 µM
[13] = second compound 0.316 µM, first compound 0.01 µM
[14] = second compound 0.316 µM, first compound 0.0316 µM
[15] = second compound 0.316 µM, first compound 0.1 µM
[16] = second compound 0.316 µM, first compound 0.316 µM
[17] = second compound 0.316 µM, first compound 1 µM
[18] = second compound 1 µM, first compound 0.00316 µM
[19] = second compound 1 µM, first compound 0.01 µM
[20] = second compound 1 µM, first compound 0.0316 µM
[21] = second compound 1 µM, first compound 0.1 µM
[22] = second compound 1 µM, first compound 0.316 µM
[23] = second compound 1 µM, first compound 1 µM
[24] = second compound 3.16 µM, first compound 0.00316 µM
[25] = second compound 3.16 µM, first compound 0.01 µM
[26] = second compound 3.16 µM, first compound 0.0316 µM
[27] = second compound 3.16 µM, first compound 0.1 µM
[28] = second compound 3.16 µM, first compound 0.316 µM
[29] = second compound 3.16 µM, first compound 1 µM
[30] = second compound 10 µM, first compound 0.00316 µM
[31] = second compound 10 µM, first compound 0.01 µM
[32] = second compound 10 µM, first compound 0.0316 µM
[33] = second compound 10 µM, first compound 0.1 µM
[34] = second compound 10 µM, first compound 0.316 µM
[35] = second compound 10 µM, first compound 1 µM

SMILES: Nc1ncn(C2CC(O)C(CO)O2)c(=O)n1 (configuration not stated) + NC1CC1c1ccc(-c2cccc(O)c2)cc1
- IC50 [1]: > 1000 nM
- IC50 [2]: > 1000 nM
- IC50 [3]: > 1000 nM
- IC50 [4]: > 1000 nM
- IC50 [5]: > 1000 nM
- viability, T/C [6]: 103%
- viability, T/C [7]: 98.5%
- viability, T/C [8]: 83.4%
- viability, T/C [9]: 74.2%
- viability, T/C [10]: 68.2%
- viability, T/C [11]: 65.8%
- viability, T/C [12]: 93.6%
- viability, T/C [13]: 98.5%
- viability, T/C [14]: 87.4%
- viability, T/C [15]: 70.5%
- viability, T/C [16]: 70.2%
- viability, T/C [17]: 66.2%
- viability, T/C [18]: 94.9%
- viability, T/C [19]: 99.6%
- viability, T/C [20]: 87.6%
- viability, T/C [21]: 66.1%
- viability, T/C [22]: 67.8%
- viability, T/C [23]: 66.7%
- viability, T/C [24]: 89%
- viability, T/C [25]: 85.9%
- viability, T/C [26]: 70.3%
- viability, T/C [27]: 72%
- viability, T/C [28]: 61.1%
- viability, T/C [29]: 64.5%
- viability, T/C [30]: 83%
- viability, T/C [31]: 80.1%
- viability, T/C [32]: 72%
- viability, T/C [33]: 60.3%
- viability, T/C [34]: 58%
- viability, T/C [35]: 61.2%

SMILES: O=C(C=Cn1cnc(-c2cc(C(F)(F)F)cc(C(F)(F)F)c2)n1)NNc1cnccn1 + NC1CCC(NC2CC2c2ccccc2)CC1
- IC50 [1]: 235 nM
- IC50 [2]: 215 nM
- IC50 [3]: > 1000 nM
- IC50 [4]: 705 nM
- IC50 [5]: 312 nM
- viability, T/C [6]: 97.6%
- viability, T/C [7]: 88.2%
- viability, T/C [8]: 67.2%
- viability, T/C [9]: 55%
- viability, T/C [10]: 50.3%
- viability, T/C [11]: 44.9%
- viability, T/C [12]: 104%
- viability, T/C [13]: 85.8%
- viability, T/C [14]: 69.6%
- viability, T/C [15]: 51%
- viability, T/C [16]: 49.6%
- viability, T/C [17]: 45.7%
- viability, T/C [18]: 88.4%
- viability, T/C [19]: 84.1%
- viability, T/C [20]: 68.8%
- viability, T/C [21]: 59.4%
- viability, T/C [22]: 54.5%
- viability, T/C [23]: 50.3%
- viability, T/C [24]: 97.9%
- viability, T/C [25]: 88.1%
- viability, T/C [26]: 74.4%
- viability, T/C [27]: 60%
- viability, T/C [28]: 57.2%
- viability, T/C [29]: 46.9%
- viability, T/C [30]: 83.6%
- viability, T/C [31]: 84.7%
- viability, T/C [32]: 70.6%
- viability, T/C [33]: 59.8%
- viability, T/C [34]: 50%
- viability, T/C [35]: 46.3%

SMILES: Nc1ccn(C2OC(CO)C(O)C2(F)F)c(=O)n1 (configuration not stated) + NC1CC1c1ccc(-c2cccc(O)c2)cc1
- IC50 [1]: < 0.949 nM
- IC50 [2]: < 0.949 nM
- IC50 [3]: < 0.949 nM
- IC50 [4]: < 0.949 nM
- IC50 [5]: < 0.949 nM
- viability, T/C (second compound 0.1 µM, first compound 0.000949 µM): 25.5%
- viability, T/C (second compound 0.1 µM, first compound 0.003 µM): 27.5%
- viability, T/C (second compound 0.1 µM, first compound 0.00949 µM): 26.3%
- viability, T/C (second compound 0.1 µM, first compound 0.03 µM): 27.9%
- viability, T/C (second compound 0.1 µM, first compound 0.0949 µM): 24.9%
- viability, T/C (second compound 0.1 µM, first compound 0.3 µM): 26.1%
- viability, T/C (second compound 0.316 µM, first compound 0.000949 µM): 26.9%
- viability, T/C (second compound 0.316 µM, first compound 0.003 µM): 26.6%
- viability, T/C (second compound 0.316 µM, first compound 0.00949 µM): 28%
- viability, T/C (second compound 0.316 µM, first compound 0.03 µM): 27.6%
- viability, T/C (second compound 0.316 µM, first compound 0.0949 µM): 27.1%
- viability, T/C (second compound 0.316 µM, first compound 0.3 µM): 28.5%
- viability, T/C (second compound 1 µM, first compound 0.000949 µM): 27.1%
- viability, T/C (second compound 1 µM, first compound 0.003 µM): 25%
- viability, T/C (second compound 1 µM, first compound 0.00949 µM): 24.1%
- viability, T/C (second compound 1 µM, first compound 0.03 µM): 27.9%
- viability, T/C (second compound 1 µM, first compound 0.0949 µM): 24.8%
- viability, T/C (second compound 1 µM, first compound 0.3 µM): 25.4%
- viability, T/C (second compound 3.16 µM, first compound 0.000949 µM): 27.5%
- viability, T/C (second compound 3.16 µM, first compound 0.003 µM): 28.6%
- viability, T/C (second compound 3.16 µM, first compound 0.00949 µM): 27.1%
- viability, T/C (second compound 3.16 µM, first compound 0.03 µM): 27.9%
- viability, T/C (second compound 3.16 µM, first compound 0.0949 µM): 29.5%
- viability, T/C (second compound 3.16 µM, first compound 0.3 µM): 25.9%
- viability, T/C (second compound 10 µM, first compound 0.000949 µM): 29%
- viability, T/C (second compound 10 µM, first compound 0.003 µM): 29.1%
- viability, T/C (second compound 10 µM, first compound 0.00949 µM): 28.6%
- viability, T/C (second compound 10 µM, first compound 0.03 µM): 26.9%
- viability, T/C (second compound 10 µM, first compound 0.0949 µM): 28.9%
- viability, T/C (second compound 10 µM, first compound 0.3 µM): 28.4%

SMILES: CC1COCCN1c1cc(C2(S(C)(=N)=O)CC2)nc(-c2ccnc3[nH]ccc23)n1 (configuration not stated)
- viability, T/C (compound 0.0316 µM): 106% and 102%
- viability, T/C (compound 0.1 µM): 110% and 101%
- viability, T/C (compound 0.316 µM): 90.1% and 76%
- viability, T/C (compound 1 µM): 57.5% and 48.9%
- viability, T/C (compound 3.16 µM): 41.4% and 34.1%
- viability, T/C (compound 10 µM): 35.5% and 25.4%
- IC50 (curve of compound): 1640 nM and 957 nM
